# Earlier results in US20190021382A1, “LONG-LASTING SWEETENER FORMULATIONS” (WM. WRIGLEY JR. COMPANY, priority 2016, published 2019).
# Details: relative to sugar
structure (smiles),measurement,value
"C=C1C[C@@]23CC[C@H]4[C@@](C)(CCC[C@@]4(C)C(=O)O[C@@H]4O[C@H](CO)[C@@H](O)[C@H](O)[C@H]4O)[C@@H]2CC[C@]1(O[C@@H]1O[C@H](CO)[C@@H](O)[C@H](O[C@@H]2O[C@H](CO)[C@@H](O)[C@H](O)[C@H]2O)[C@H]1O[C@@H]1O[C@H](CO)[C@@H](O)[C@H](O)[C@H]1O)C3 [Rebaudioside A, rebaudioside A]",times sweeter than sugar,200 times
